Data as given in PubChem BioAssay AID179 (DTP/NCI, 2004).
“And” between values parts separate entries of the source, which are not always exact repeats. Identical values can stand only once. The source made the active and inactive calls.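 Rule for the calls: active = compounds giving half or more protection of infected cells from virus-caused growth loss, again on retest; inactive = the rest.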 Where a SMILES comes first, the peptide text is derived from it. The star is where a group is joined. Cbz = O=C(OCc1ccccc1)*; NHNH2 = NN*

Tested on: CEM cells HIV-1 protection, formazan growth assay
Experiment: NCI AIDS Antiviral Assay
Conditions: for IC50: measured here: growth of uninfected CEM cells
Procedure: The ability of compounds to protect human CEM cells from HIV-1 infection is measured as a screen for new compounds capable of inhibiting the HIV virus. Five concentrations of drug were tested on uninfected and infected cells and cell growth was measured using a soluble formazan assay. […] Compounds that provided at least 50% protection were retested. Compounds that provided at least 50% protection on retest were listed as moderately active. Compounds that reproducibly provided 100% protection were listed as confirmed active. […] Note that the inability to provide protection could be due to toxicity.

Row | SMILES | EC50 [µM] | IC50 | outcome
1 | CCCC(O)[C@@]1(CC)CC(C)C(O)(C2(C)C[C@H](C)[C@@H](C(CC)C(=O)C(C)[C@@H](O)[C@H](C)C3OC(O)(C(CC)C(=O)O)[C@@H](C)C(O)C3CC)O2)O1 (stereo not given in full) | 0.138 | 1.78 µM | –
2 | CC1CCC(O)C(C(O)CC2CC(=O)NC(=O)C2)C1 (stereo not given) | > 200 | > 200 µM | –
3 | CC(C)(C)[Si](C)(C)Oc1cc(CO)cc2c1cc(=N)o[n+]2[O-] | > 200 | 10.2 µM | –
4 | Cc1nc2ccc(NC3OC(CO)C(O)C(O)C3O)cc2c(=O)n1-c1ccccc1 (stereo not given) | > 200 | > 200 µM | –
5 | CCOC(=O)NC1=NCC(C)S1 (stereo not given) | – | – | inactive
6 | Cc1ccc(C)n1-n1c(-c2ccccc2)n[nH]c1=O | > 200 | 89.1 µM | –
7 | CCc1c2[n-]c(c1C)/C=c1\[n-]/c(c(C)c1CC)=C\c1[n-]c(c(CCC(=O)O)c1C)/C=c1\[n-]/c(c(C)c1CCC(=O)O)=C\2.[Zn] | > 21.4 | 13.5 µM | –
8 | CCOC(=O)CN(c1sc(C)c(-c2ccccc2)c1C(=O)OCC)S(=O)(=O)c1ccc(C)cc1 | > 200 | 5.13 µM | –
9 | COc1ccc(-c2cc(=O)c3c(O)cc(C)cc3o2)cc1OC | > 200 | > 200 µM | –
10 | CC1=C(C(=O)CC(=O)C(=O)Nc2ccccc2C)Sc2ccccc2N1 | > 19.5 | > 19.5 µM | –
11 | CN(C)CCC=C1c2ccccc2C=Cc2ccccc21 | > 200 | 33.9 µM and 28.8 µM and 37.2 µM | –
12 | COc1ccc(C(O)/C(=N\NC(N)=S)c2nc3ccc([N+](=O)[O-])cc3[nH]c2=O)cc1OC (stereo not given) | > 288 | > 288 µM | –
13 | Cc1ccc(-n2c(=O)c3nn4c(=O)n(-c5ccc(C)cc5)c(=O)c4nn3c2=O)cc1 | > 200 | > 200 µM | –
14 | CC(C)(C)OC(=O)NCC(C#N)CNC(=O)OC(C)(C)C | > 603 | > 603 µM | –
15 | Cc1ccnc(NS(=O)(=O)c2ccc(N=Nc3cc4ccccc4c(C(=O)O)c3O)cc2)n1 | > 200 | 10 µM | –
16 | Cc1cc2[n-]c1/C=c1\[n-]/c(c(CCC(=O)O)c1C)=C\c1[n-]c(c(C)c1CCC(=O)O)/C=c1/cc(C)/c([n-]1)=C/2.[Co] | > 24 | > 24 µM | –
17 | CC[P+](c1ccccc1)(N(C)C)N(C)C | > 200 | 112 µM | –
18 | Nn1nc2ccccc2n1 | > 1860 | > 1860 µM | –
19 | CC1(SCC(N)C(=O)O)CC(=O)NC1=O (stereo not given) | > 200 | > 200 µM | –
20 | COc1ccc(C2=C/C(=C3/C(=O)C=C(C)OC3=O)SS2)cc1 | > 100 | > 100 µM | –
21 | Cc1nc2[nH]ncn2c(=O)c1CCCl | > 200 | 34.7 µM | –
22 | CCOC(=O)c1cn2ccccc2c(C(C)=O)c1=N | > 200 | 166 µM | –

Row | SMILES | EC50 [µM] | IC50 | outcome
23 | CC(C)c1cccc(C(C)C)c1NC(=S)Nc1ccccc1 | – | – | inactive
24 | CN1C(CC(O)c2ccccc2)CCCC1CC(O)c1ccccc1 (stereo not given) | > 200 | > 200 µM | –
25 | C=Cc1ccc(CC)cn1 | > 200 | > 200 µM | –
26 | CCOC(=O)/C(C#N)=C/c1cccc(Cl)c1 | > 79.4 | > 79.4 µM | –
27 | COc1ccc(NC(=O)C(=O)NO)c(OC)c1 | > 537 | 234 µM | –
28 | COc1nc2ncc([C@@H](O)[C@H](O)CO)nc2c(=O)n1C | > 200 | > 200 µM | –
29 | NC(P(=O)(O)O)P(=O)(O)O | > 200 | > 200 µM | –
30 | COc1ccc(C2=Nn3c(nc4sc5c(c4c3=O)CCCC5)SC2)cc1 | > 200 | > 200 µM | –
31 | CCC(C)C(NC(=O)C1CCCN1C(=O)OCc1ccccc1)C(=O)O (stereo not drawn) (Cbz-Pro-Ile-OH; configuration not given here) | > 692 | > 692 µM | –
32 | N#CC1(C#N)C(C#N)(C#N)C12CCCCC2 | > 20 | 10 µM | –
33 | CNNC1=NS(=O)(=O)c2cc(C(=O)OC)c(Cl)cc2S1 | > 200 | > 200 µM | –
34 | O=C1C(=O)c2ccccc2C(O)=C1C(C1=C(O)c2ccccc2C(=O)C1=O)c1ccc(Cl)cc1Cl | > 200 | 16.2 µM | –
35 | COC(=O)CNC(=O)CSc1nnc(COc2ccc(Cl)cc2)n1-c1ccccc1 | > 200 | 60.3 µM | –
36 | Cc1ccc2c(c1)-c1nc(N)c(C#N)c(-c3ccccc3)c1CCS2(=O)=O | > 200 | > 200 µM | –
37 | N#Cc1c(C#N)c(-c2ccco2)n(-c2ccccc2)c1N | > 200 | > 200 µM | –
38 | CSC1CC2C(CC1(C)O)C2(C)C (stereo not given) | > 200 | 162 µM and > 200 µM | –
39 | CC(C)(Cc1ccccc1)Cc1cc(O)ccc1O | 1.29 | 7.24 µM | –
40 | NC1=C(c2nc(-c3ccccc3)cs2)C(c2ccco2)c2c(c3ccccc3oc2=O)O1 (stereo not given) | > 200 | 93.3 µM | –
41 | COc1ccc(/C=C2\C(=O)N(C(=O)Cc3ccccc3)N=C2C)cc1OC | > 51.3 | > 51.3 µM | –
42 | N#Cc1c(C#N)c(-c2ccco2)n(/N=C/c2ccco2)c1N | > 200 | > 200 µM | –
43 | COc1ccc(C(=O)O/N=C2/CCCCC2CN(C)C)cc1 (stereo not given) | – | – | inactive
44 | CSc1nnc(CF)c(=O)[nH]1 | > 200 | > 200 µM | –

Row | SMILES | EC50 [µM] | IC50 | outcome
45 | c1ccc(C2=C(c3ccccc3)P(c3ccccc3)C2)cc1 (stereo not given) | – | – | inactive
46 | COC(=O)C(N)CSCc1ccccc1 (stereo not given) | > 692 | 589 µM | –
47 | CC1(C)CC(C2=NCCO2)CC(C)(C)N1 | > 200 | > 200 µM | –
48 | CCNC(=S)Nc1c(C#N)c2n(c1C(=O)OCC)CCCCC2 | > 200 | > 200 µM | –
49 | O=C(/C=C/c1ccc(O)c(O)c1)O[C@H]1CCCC[C@@H]1OC(=O)/C=C/c1ccc(O)c(O)c1 | > 100 | 5.75 µM | –
50 | Cc1[nH]nc2c(N(C)C)ncnc12 | > 200 | 170 µM | –
51 | O=NN1CCCS1(=O)=O | > 200 | > 200 µM | –
52 | CCOC(=O)CCC(NC(=O)OCc1ccccc1)C(=O)NC(CCC(=O)OCC)C(=O)NN (stereo not given) (Cbz-Glu(OEt)-Glu(OEt)-NHNH2; configuration not given here) | > 200 | > 200 µM | –
53 | OCC1C=CC(n2cnc3c(Cl)ncnc32)CC1 (stereo not given) | > 200 | 34.7 µM | –
54 | CCCCCCCCCC1(N=[N+]=[N-])C(=O)c2ccccc2N(C)C1=O (stereo not given) | > 200 | 33.9 µM | –
55 | CCN(CC)CCNc1ccc(CO)c2sc3ccccc3c(=O)c12 | – | 2690 µM | inactive
56 | O=C1CSC(c2c[nH]c3ccccc23)N1c1cccc([N+](=O)[O-])c1 (stereo not given) | > 200 | 21.9 µM | –
57 | C=C[C@@H]1c2ccccc2C=C[C@]1(CCC1(C)OCCO1)C1=NC(COC)[C@H](c2ccccc2)O1 (stereo not given in full) | > 8.13 | > 8.13 µM | –
58 | N#C/C(=C\c1cccc(N)c1)c1ccccc1 | > 200 | 57.5 µM | –
59 | CSc1nc(-c2ccc(Cl)cc2)c(C#N)c(=O)n1C1OC(COC(C)=O)C(OC(C)=O)C(OC(C)=O)C1OC(C)=O (stereo not given) | > 132 | 32.4 µM and 89.1 µM | –
60 | CC(=O)OCCOCn1c2ccccc2c2c3c(c4c5ccccc5n(COCCO)c4c21)C(=O)N(Cc1ccccc1)C3=O | – | – | inactive
61 | O=C1CCC[C@H]2O[C@@H](COC(=O)c3ccccc3)C[C@H]2O1 | > 200 | > 200 µM | –
62 | Nc1ccn(C2CC(F)C(CO)S2)c(=O)n1 (stereo not given) | > 25.1 | > 25.1 µM | –
63 | O=C1OC(=Nc2ccccc2Cl)c2ccccc21 | > 200 | > 200 µM | –
64 | COC(=O)C1(Cc2ccc3c(c2)CCC3)Cc2cc3c(cc2C1=O)CCC3 (stereo not given) | > 200 | 30.9 µM | –
65 | COc1cc(O)c2c(c1)O[C@H](C)[C@H](C)C2=O | 100 | > 200 µM | –
66 | Cc1c2c(cn1C)NC(=O)CN=C2c1ccccc1 | > 200 | > 200 µM | –

Row | SMILES | EC50 [µM] | IC50 | outcome
67 | COc1cc2c(c(OC)c1OC)C(=O)[C@H](O)[C@H]2NC(N)=O | > 200 | 105 µM | –
68 | CCOC1=NC(C(F)(F)F)(C(F)(F)F)N=C(N2CCOCC2)O1 | > 200 | > 200 µM | –
69 | Cc1ccc(/C=C2\N=C(N3CCCCC3)NC2=O)cc1 | > 200 | 191 µM | –
70 | O=C(NN=C1CCCCC1)NN=C1CCCCC1 | > 100 | > 100 µM | –
71 | Cc1cc(NS(=O)(=O)c2ccc(Nc3c4ccccc4nc4c(C(=O)NCC#N)cccc34)cc2)no1 | > 200 | 10.7 µM | –
72 | CCOC(=O)OC1C(Br)C2CCC1(C)C2(C)C (stereo not given) | > 200 | > 200 µM | –
73 | COc1ccc(-n2[nH]nc(C(N)=O)c2=O)cc1 | > 200 | > 200 µM | –
74 | CC(C)(C)OC(=O)NCCCCC(N)C(N)=O (stereo not given) | > 200 | > 200 µM | –
75 | Cc1cc(S(=O)(=O)Nc2nc(N)nc(N3N=CCC3C)n2)c(S)cc1Cl (stereo not given) | 55 | > 200 µM | –
76 | C=CCC(C)(C(=O)NCCC)C(=O)c1ccccc1O (stereo not given) | – | – | inactive
77 | CC(=O)N[C@H]1CC2(C=C(Br)C(=O)C(Br)=C2)OC1=O | > 33.1 | 5.13 µM | –
78 | CC(=O)OCC1OC(n2c(-c3ccc(C)cc3)cc(-c3ccccc3)c(C#N)c2=O)C(OC(C)=O)C(OC(C)=O)C1OC(C)=O (stereo not given) | > 11.7 | > 11.7 µM | –
79 | CCOC(=O)c1cn2c(n1)sc1cccc(C)c12 | > 200 | > 200 µM | –
80 | COc1ccc2c3c([nH]c2c1[N+](=O)[O-])C(C)N(Cc1ccc([N+](=O)[O-])cc1)CC3 (stereo not given) | – | – | inactive
81 | CC(C)CC(F)(C(N)=O)C(N)=O | > 200 | > 200 µM | –
82 | COc1ccccc1C1(c2c(OC(C)C)c(=O)c2=O)SCCCS1 | > 200 | 138 µM | –
83 | O=c1c2cc(-c3ccccc3)cnc2sn1-c1ccc(Br)cc1 | 110 | 186 µM | –
84 | Cc1ccc(S(=O)(=O)N/N=C/C=N/NS(=O)(=O)c2ccc(C)cc2)cc1 | – | – | inactive
85 | Cc1c(C)c(C)c(-n2c(=O)n(C)c(=O)n2-c2cc(C(C)(C)C)cc(C(C)(C)C)c2O)c(C)c1C | > 200 | 13.2 µM | –
86 | C[N+](C)(C)CC1CCCc2ccccc2C1=O (stereo not given) | – | – | inactive
87 | N#C/C(=C\c1ccc(O)c(O)c1)C(N)=O | > 25.1 | 10.5 µM | –
